For 28 compounds, EC30 results are on record in patent publication US10758534B2 (Vertex Pharmaceuticals Incorporated, priority 2014, dated 2020).

The target of this test is T1, F508del (Homo sapiens, UniProt P13569, DEL508-508).
T1 construct: expressed in transfected cells
T1 sequence (P13569 with tags, fused parts or gaps DEL508-508): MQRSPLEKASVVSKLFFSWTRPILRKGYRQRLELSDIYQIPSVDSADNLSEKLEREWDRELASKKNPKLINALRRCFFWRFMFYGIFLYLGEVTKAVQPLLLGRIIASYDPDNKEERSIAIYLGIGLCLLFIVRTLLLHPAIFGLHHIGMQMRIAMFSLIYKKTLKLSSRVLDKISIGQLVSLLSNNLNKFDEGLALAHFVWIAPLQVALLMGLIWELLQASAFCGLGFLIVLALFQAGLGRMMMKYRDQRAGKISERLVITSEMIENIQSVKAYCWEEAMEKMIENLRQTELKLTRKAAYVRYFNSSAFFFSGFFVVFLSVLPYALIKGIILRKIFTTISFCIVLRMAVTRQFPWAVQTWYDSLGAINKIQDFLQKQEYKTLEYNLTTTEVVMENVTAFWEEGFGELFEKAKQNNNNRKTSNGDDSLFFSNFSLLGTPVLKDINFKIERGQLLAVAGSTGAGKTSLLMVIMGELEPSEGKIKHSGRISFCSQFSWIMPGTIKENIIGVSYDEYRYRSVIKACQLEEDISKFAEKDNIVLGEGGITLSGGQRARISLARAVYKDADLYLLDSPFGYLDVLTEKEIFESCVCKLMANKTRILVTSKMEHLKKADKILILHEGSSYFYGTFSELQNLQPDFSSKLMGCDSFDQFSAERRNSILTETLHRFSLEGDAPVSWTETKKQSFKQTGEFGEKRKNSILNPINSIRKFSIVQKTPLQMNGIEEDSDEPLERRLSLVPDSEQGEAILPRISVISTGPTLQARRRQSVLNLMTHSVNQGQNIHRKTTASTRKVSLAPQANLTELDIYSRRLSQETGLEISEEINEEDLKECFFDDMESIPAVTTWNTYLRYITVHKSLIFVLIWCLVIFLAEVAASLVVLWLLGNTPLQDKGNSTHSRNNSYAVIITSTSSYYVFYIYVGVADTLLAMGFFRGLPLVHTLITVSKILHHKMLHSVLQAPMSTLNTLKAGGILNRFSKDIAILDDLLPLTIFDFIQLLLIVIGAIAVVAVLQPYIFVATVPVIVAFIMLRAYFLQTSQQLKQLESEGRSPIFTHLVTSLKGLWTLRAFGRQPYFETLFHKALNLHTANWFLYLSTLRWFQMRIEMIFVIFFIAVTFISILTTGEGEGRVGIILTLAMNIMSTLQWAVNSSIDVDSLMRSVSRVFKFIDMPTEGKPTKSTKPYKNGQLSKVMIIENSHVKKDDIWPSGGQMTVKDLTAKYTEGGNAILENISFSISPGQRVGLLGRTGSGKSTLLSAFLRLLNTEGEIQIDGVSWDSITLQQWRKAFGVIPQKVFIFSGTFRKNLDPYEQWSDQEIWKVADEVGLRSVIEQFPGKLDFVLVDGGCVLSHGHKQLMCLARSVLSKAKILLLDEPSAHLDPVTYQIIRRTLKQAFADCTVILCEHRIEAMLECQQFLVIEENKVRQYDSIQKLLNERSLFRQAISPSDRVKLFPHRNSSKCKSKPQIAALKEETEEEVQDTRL
The test can be described thus: Protocol 1: membrane potential optical assay (FLIPR III, voltage sensing dye), identification of potentiator compounds. In kind it is cell-based. Particulars: Table 3, compounds of Table 1. The method, boiled down:
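Read-out: change in voltage-sensing dye fluorescence (FLIPR III) as a measure of F508del conductance. Temperature-corrected (27° C, 24 hrs) NIH 3T3 cells expressing F508del are pretreated with potentiators, dye-loaded, then stimulated with forskolin under a chloride ion gradient using chloride-free gluconate bath.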
Turning to `CC(C)COc1cc(F)cc(-c2ccc(C(=O)NS(=O)(=O)c3cccc(N)n3)c(N3CCC(=O)C3(C)C)n2)c1` [Compound 1189, N-[(6-amino-2-pyridyl)sulfonyl]-2-(2,2-dimethyl-3-oxo-pyrrolidin-1-yl)-6-(3-fluoro-5-isobutoxy-phenyl)pyridine-3-carboxamide], the EC30 entry was “+++ (“+++” means <3 uM)”.
For `CCOc1cc(C)cc(-c2ccc(C(=O)NS(=O)(=O)c3cccnc3N)c(Oc3c(C)cc(C)cc3C)n2)n1` [Compound 1795, N-[(2-amino-3-pyridyl)sulfonyl]-6-(6-ethoxy-4-methyl-2-pyridyl)-2-(2,4,6-trimethylphenoxy)pyridine-3-carboxamide] the value was “+++ (“+++” means <3 uM)”; for `Cc1cc(C)c(Oc2nc(-c3ccc(C(C)C)cc3)ccc2C(=O)NS(=O)(=O)c2ccc[nH]c2=O)c(C)c1` [Compound 1002, 6-(4-isopropylphenyl)-N-[(2-oxo-1H-pyridin-3-yl)sulfonyl]-2-(2,4,6-trimethylphenoxy)pyridine-3-carboxamide], “+++ (“+++” means <3 uM)”.
On to `CCOc1nc(-c2ccc(C(=O)NS(=O)(=O)c3cccc(N)n3)c(N3CC(C)CC3(C)C)n2)ccc1C` (stereo not shown) [Compound 1363, N-[(6-amino-2-pyridyl)sulfonyl]-6-(6-ethoxy-5-methyl-2-pyridyl)-2-(2,2,4-trimethylpyrrolidin-1-yl)pyridine-3-carboxamide], for which the EC30 entry is “+++ (“+++” means <3 uM)”.
The same measure for `CC(C)COc1cc(F)cc(-c2ccc(C(=O)NS(=O)(=O)c3cccc(N)n3)c(NCC3(CC(C)(C)O)CC3)n2)c1` [Compound 1723, N-[(6-amino-2-pyridyl)sulfonyl]-6-(3-fluoro-5-isobutoxy-phenyl)-2-[[1-(2-hydroxy-2-methyl-propyl)cyclopropyl]methylamino]pyridine-3-carboxamide]: “+++ (“+++” means <3 uM)”; for `COc1ccc(-c2ccc(C(=O)NS(=O)(=O)c3cccnc3N)c(N3C[C@@H](C)CC3(C)C)n2)cc1C` [Compound 1747, N-[(2-amino-3-pyridyl)sulfonyl]-6-(4-methoxy-3-methyl-phenyl)-2-[(4S)-2,2,4-trimethylpyrrolidin-1-yl]pyridine-3-carboxamide]: “+++ (“+++” means <3 uM)”; for `CC1CN(c2ncccc2C(=O)NS(=O)(=O)c2cccc(OC3CCCC3)n2)C(C)(C)C1` (stereo not shown) [Compound 1834, N—[[6-(cyclopentoxy)-2-pyridyl]sulfonyl]-2-(2,2,4-trimethylpyrrolidin-1-yl)pyridine-3-carboxamide]: “+++ (“+++” means <3 uM)”.
`CC(C)COc1cc(F)cc(-c2ccc(C(=O)NS(=O)(=O)c3cccc(N)n3)c(OCC3(F)COC3)n2)c1` [Compound 1053, N-[(6-amino-2-pyridyl)sulfonyl]-6-(3-fluoro-5-isobutoxy-phenyl)-2-[(3-fluorooxetan-3-yl)methoxy]pyridine-3-carboxamide]: the EC30 result was “++ (“++” means between 3 uM and 10 uM)”.
The same measure for `Cc1cc(C)c(Cn2nc(C(C)(C)C)cc2C(=O)NS(=O)(=O)c2ccccc2N)c(C)c1` [Compound 1167, N-(2-aminophenyl)sulfonyl-5-tert-butyl-2-[(2,4,6-trimethylphenyl)methyl]pyrazole-3-carboxamide]: “+++ (“+++” means <3 uM)”; for `CC(C)(C)c1ccc(C(=O)NS(=O)(=O)c2cccc(N)c2)c(-c2ccc(F)c(F)c2)n1` [Compound 1217, N-(3-aminophenyl)sulfonyl-6-tert-butyl-2-(3,4-difluorophenyl)pyridine-3-carboxamide]: “+ (“+” means greater than 10 uM)”; for `C[C@@H]1CN(c2nc(C3CC3)ccc2C(=O)NS(=O)(=O)c2cccc(N)n2)C(C)(C)C1` [Compound 1627, N-[(6-amino-2-pyridyl)sulfonyl]-6-cyclopropyl-2-[(4S)-2,2,4-trimethylpyrrolidin-1-yl]pyridine-3-carboxamide]: “+++ (“+++” means <3 uM)”.
The same measure for `C[C@@H]1CN(c2nc(-c3ccc4[nH]ccc4c3)ccc2C(=O)NS(=O)(=O)c2ccc[nH]c2=O)C(C)(C)C1` [Compound 1982, 6-(1H-indol-5-yl)-N-[(2-oxo-1H-pyridin-3-yl)sulfonyl]-2-[(4S)-2,2,4-trimethylpyrrolidin-1-yl]pyridine-3-carboxamide]: “++ (“++” means between 3 uM and 10 uM)”; for `Cc1ccccc1-c1cnc(N2CC(C)CC2(C)C)c(C(=O)NS(=O)(=O)c2cccc(N)n2)c1` (stereo not shown) [Compound 1701, N-[(6-amino-2-pyridyl)sulfonyl]-5-(o-tolyl)-2-(2,2,4-trimethylpyrrolidin-1-yl)pyridine-3-carboxamide]: “+++ (“+++” means <3 uM)”.
For `Cc1cc(C)c(Oc2nc(-c3ccc(OC(C)C)nc3)ccc2C(=O)NS(=O)(=O)c2cccc(N)n2)c(C)c1` [Compound 1163, N-[(6-amino-2-pyridyl)sulfonyl]-6-(6-isopropoxy-3-pyridyl)-2-(2,4,6-trimethylphenoxy)pyridine-3-carboxamide] the value was “+++ (“+++” means <3 uM)”; for `CC(C)COc1cnn(-c2ccc(C(=O)NS(=O)(=O)c3cccc(N)n3)c(N3C[C@@H](C)CC3(C)C)n2)c1` [Compound 1443, N-[(6-amino-2-pyridyl)sulfonyl]-6-(4-isobutoxypyrazol-1-yl)-2-[(4S)-2,2,4-trimethylpyrrolidin-1-yl]pyridine-3-carboxamide], “+++ (“+++” means <3 uM)”.
For `CC(C)c1ccccc1Oc1nc(C(C)(C)C)ccc1C(=O)NS(=O)(=O)c1cccc(N)n1` [Compound 1031, N-[(6-amino-2-pyridyl)sulfonyl]-6-tert-butyl-2-(2-isopropylphenoxy)pyridine-3-carboxamide], the EC30 entry is “+++ (“+++” means <3 uM)”.
The same measure for `CC1CN(c2ncccc2C(=O)NS(=O)(=O)c2cccc(N3CCCC4CCCCC43)n2)C(C)(C)C1` (stereo not shown) [Compound 1776, N—[[6-(3,4,4a,5,6,7,8,8a-octahydro-2H-quinolin-1-yl)-2-pyridyl]sulfonyl]-2-(2,2,4-trimethylpyrrolidin-1-yl)pyridine-3-carboxamide]: “+++ (“+++” means <3 uM)”; for `C[C@@H]1CN(c2nc(-c3ccccc3C(F)(F)F)ccc2C(=O)NS(=O)(=O)c2ccc[nH]c2=O)C(C)(C)C1` [Compound 1960, N-[(2-oxo-1H-pyridin-3-yl)sulfonyl]-6-[2-(trifluoromethyl)phenyl]-2-[(4S)-2,2,4-trimethylpyrrolidin-1-yl]pyridine-3-carboxamide]: “+++ (“+++” means <3 uM)”.
For `CC1CN(c2ncccc2C(=O)NS(=O)(=O)c2cccc(N(C)Cc3ccccc3)n2)C(C)(C)C1` (stereo not shown) [Compound 1827, N—[[6-[benzyl(methyl)amino]-2-pyridyl]sulfonyl]-2-(2,2,4-trimethylpyrrolidin-1-yl)pyridine-3-carboxamide] the value was “+++ (“+++” means <3 uM)”; for `CC(C)COc1cc(F)cc(-c2ccc(C(=O)NS(=O)(=O)c3ccn[nH]3)c(N3CCC(C)C3(C)C)n2)c1` (stereo not shown) [Compound 997, 6-(3-fluoro-5-isobutoxy-phenyl)-N-(1H-pyrazol-5-ylsulfonyl)-2-(2,2,3-trimethylpyrrolidin-1-yl)pyridine-3-carboxamide], “++ (“++” means between 3 uM and 10 uM)”.
The same measure for `CCOCCc1ccc(C(=O)NS(=O)(=O)c2cccc(N)n2)c(Oc2c(C)cc(C)cc2C)n1` [Compound 929, N-[(6-amino-2-pyridyl)sulfonyl]-6-(2-ethoxyethyl)-2-(2,4,6-trimethylphenoxy)pyridine-3-carboxamide]: “++ (“++” means between 3 uM and 10 uM)”.
Turning to `C[C@@H]1CN(c2nc(-c3cc(F)cc(OCC(C)(C)O)c3)ccc2C(=O)NS(=O)(=O)c2ccccc2)C(C)(C)C1` [Compound 1581, N-(benzenesulfonyl)-6-[3-fluoro-5-(2-hydroxy-2-methyl-propoxy)phenyl]-2-[(4S)-2,2,4-trimethylpyrrolidin-1-yl]pyridine-3-carboxamide], the EC30 entry was “+++ (“+++” means <3 uM)”.
For `CC(C)COc1cc(F)cc(-c2ccc(C(=O)NS(=O)(=O)c3cccc(N)n3)c(N3CCCCC3(C)C)n2)c1` [Compound 1004, N-[(6-amino-2-pyridyl)sulfonyl]-2-(2,2-dimethyl-1-piperidyl)-6-(3-fluoro-5-isobutoxy-phenyl)pyridine-3-carboxamide] the value was “+++ (“+++” means <3 uM)”.
The same measure for `COc1cccc(S(=O)(=O)NC(=O)C2Cc3ccccc3CCN2Cc2c(C)cc(C)cc2C)n1` (stereo not shown) [Compound 948, N-[(6-methoxy-2-pyridyl)sulfonyl]-3-[(2,4,6-trimethylphenyl)methyl]-1,2,4,5-tetrahydro-3-benzazepine-4-carboxamide]: “+++ (“+++” means <3 uM)”; for `CC(C)(C)c1cc(C(=O)NS(=O)(=O)c2cccc(N)c2)n(Cc2ccc(Cl)cc2Cl)n1` [Compound 797, N-(3-aminophenyl)sulfonyl-5-tert-butyl-2-[(2,4-dichlorophenyl)methyl]pyrazole-3-carboxamide]: “+ (“+” means greater than 10 uM)”.
As to `CC1CN(c2nc(-c3ccnn3C(C)C)ccc2C(=O)NS(=O)(=O)c2cccc(N)n2)C(C)(C)C1` (stereo not shown) [Compound 1242, N-[(6-amino-2-pyridyl)sulfonyl]-6-(2-isopropylpyrazol-3-yl)-2-(2,2,4-trimethylpyrrolidin-1-yl)pyridine-3-carboxamide], the EC30 result is on record as “+++ (“+++” means <3 uM)”.
The same measure for `Cc1cc(C)c(Oc2nc(-c3cccc4c3OCO4)ccc2C(=O)NS(=O)(=O)c2cccc(N)n2)c(C)c1` [Compound 974, N-[(6-amino-2-pyridyl)sulfonyl]-6-(1,3-benzodioxol-4-yl)-2-(2,4,6-trimethylphenoxy)pyridine-3-carboxamide]: “+++ (“+++” means <3 uM)”; for `CCOCCOCCOc1ncc(-c2ccc(C(=O)NS(=O)(=O)c3cccc(N)n3)c(N3C[C@@H](C)CC3(C)C)n2)cc1C` [Compound 1715, N-[(6-amino-2-pyridyl)sulfonyl]-6-[6-[2-(2-ethoxyethoxy)ethoxy]-5-methyl-3-pyridyl]-2-[(4S)-2,2,4-trimethylpyrrolidin-1-yl]pyridine-3-carboxamide]: “+++ (“+++” means <3 uM)”.
